In patent US20240124483A1, “Methods for the Treatment of Fibrotic Disease” (SHY Therapeutics, LLC, priority 2021, published 2024):
Read-outs that look alike come from different tables or passages of the source.

What was measured:
[1] = molecular target: KRas G12C mutant (Homo sapiens (Human), UniProt P01116, G12C); test: Ras GTP Binding Domain Inhibition Assay, KRas G12C mutant
Protocol: (§1) A Ras Superfamily Activity Assay (as disclosed in International Application No. PCT/US2018/038613, filed Jun. 20, 2018, which is incorporated by reference in its entirety) was used as a specific assay to evaluate compounds against the following for the following Ras Superfamily proteins: KRas wild type, KRas Q61H mutant, KRas G12C mutant, KRas G12D mutant, Rac-1, and Rho-A.
(§2) Buffer-I: • 25 mM Tris-HCl, pH 7.4 • 27 mM KCl • 137 mM NaCl • 1 mM MgCl2 • 1 mM DTT
(§3) Buffer-II: • 50 mM Tris-HCl, pH 7.0 • 1 mM MgCl2 • 1 mM DTT
(§4) The small GTPases proteins: KRas wild type. KRas Q61H mutant, KRas G12C mutant, KRas G12D mutants, Rac-1, and Rho-A were expressed as His-tagged proteins. In addition, the Guanosine nucleotide Exchange Factor (GEF) Sos protein (residues 556-1049) was expressed as a His-tagged protein. In cells, the guanine nucleotide exchange factor Sos protein promotes activation of Ras proteins by stimulating an exchange of GDP for GTP. The inclusion of Sos to the Ras GTP binding domain inhibition assay may be considered as an alternative representation of physiological cellular conditions for evaluating the inhibitory activity of some of the tested small molecules.
(§5) For the assay, all purified small GTPases proteins were diluted in Buffer-I or Buffer-II to a final concentration of 10-30 μg/mL. 200 μL of each diluted protein was added to a nickel-coated 96-well plate and incubated overnight at 4° C. Then the protein solution was discarded and 200 μL of Buffer-I or Buffer-II was added to each well in the presence of 1% DMSO. Compounds to be tested were added to the protein-coated wells at final concentration of 20 μM, and incubated for 3 hours at room temperature with and without 10-30 μg/mL of Sos added to the final hour of the incubation. When performing IC50 measurements a serial dilution of all tested concentrations was added. Then Cy3-GTP or Cy5-GTP was added to each well to a final concentration of 100 nM. The labeled GTP was incubated for 45 minutes at room temperature. Following GTP incubation, wells were washed 3× in Buffer-I or Buffer-II and 200 μL of Buffer-I or Buffer-II was added to each well. Following washes, the amount of bound labeled-GTP was measured using a SpectraMax M3 (Molecular Devices).

[2] = tested on: JNK; test: JNK Activation Assay in Panc-1 (western blot); assay type: cell-based, Human; set-up: key: Y = yes; N = No; settings: at 10 μM
Protocol: Cell lines: Human tumor-derived pancreatic cancer cell line Panc-1 and mouse muscle myoblast C2C12 were purchased from American Type Culture Collection and grown in complete DMEM-High Glucose, supplemented with penicillin (100 U/mL), streptomycin (100 μg/mL), and 10% heat-inactivated FBS at 37° C. in a humidified incubator with 5% CO2.
Method: Cells were plated at 350000 cells/well density in a 12-well plate, allowed 3 hours to adhere to the plate, then starved in the appropriate medium in the presence of 0.5% FBS overnight. The small molecules to be tested were added to the cells in the final concentration of 10 μM in the presence of 0.3% DMSO for 3 hours incubation at 37° C. For IC50 value determination, serial dilutions of compounds were added to cells under the same conditions. Next, Panc-1 cells were stimulated with 10 ng/ml TGF-b1 for 1 hour, and C2C12 cells were stimulated with 10 ng/ml TGF-b1 for 20 minutes (recombinant human TGF-b1, R&D Systems). After stimulation cells were lysed with lysis buffer containing 1% Triton X-100, EDTA, and Halt™ Protease & Phosphatase Inhibitor Cocktail (Thermo Scientific). Protein concentration was assessed by BCA protein assay (Thermo Scientific). Phosphorylation level of JNK was determined by western blot.
Western blot protocol: Equal amounts of protein (15-50 μg) were separated by SDS-PAGE and transferred to nitrocellulose membranes (Invitrogen by Thermo Fisher Scientific). The membrane was stained with Ponceau S Stain (Boston BioProducts) to verify uniform protein loading. Membranes were blocked with 10% milk and phosphorylation levels of Smad2, Smad3, INK and p38 were assessed by incubating overnight at 4° C. with the following antibody: Phospho-SAPK/JNK (Thr183/Tyr185), from Cell Signaling Technology. Then the membranes were incubated with HRP-conjugated secondary antibody (Jackson Immunoresearch, West Grove, PA). Bands were incubated in Amersham ECL Prime Western Blotting Detection Reagent (GE Healthcare) and visualized using the ChemiDoc MP imaging system (Bio-Rad).

[3] = molecular target: Rho-A (Homo sapiens (Human), UniProt P61586); test: Ras GTP Binding Domain Inhibition Assay, Rho-A
Protocol: as §1, §2, §3, §4, §5

[4] = molecular target: KRas wild type (Homo sapiens (Human), UniProt P01116); test: Ras GTP Binding Domain Inhibition Assay, KRas wild type
Protocol: as §1, §2, §3, §4, §5

[5] = molecular target: KRas G12D mutant (Homo sapiens (Human), UniProt P01116, G12D); test: Ras GTP Binding Domain Inhibition Assay, KRas G12D mutant; settings: for inhibition at 20 µM: Table 7; for KRas G12D mutant + SOS: % inh. / KRas G12D mutant: % inh.: 20 uM, Table 8
Protocol: as §1, §2, §3, §4, §5

[6] = + SOS, read-out: KRas G12C mutant + SOS: % inh.
[7] = without SOS, read-out: KRas G12C mutant: % inh.
[8] = + SOS, read-out: Rho-A + SOS: % inh.
[9] = without SOS, read-out: Rho-A: % inh.
[10] = + SOS, read-out: KRas wild type + SOS: % inh.
[11] = without SOS, read-out: KRas wild type: % inh.
[12] = + SOS, read-out: KRas G12D mutant + SOS: % inh.
[13] = without SOS, read-out: KRas G12D mutant: % inh.

Chain of Rho-A (P61586 whole entry, species assumed, the tested form may be a part): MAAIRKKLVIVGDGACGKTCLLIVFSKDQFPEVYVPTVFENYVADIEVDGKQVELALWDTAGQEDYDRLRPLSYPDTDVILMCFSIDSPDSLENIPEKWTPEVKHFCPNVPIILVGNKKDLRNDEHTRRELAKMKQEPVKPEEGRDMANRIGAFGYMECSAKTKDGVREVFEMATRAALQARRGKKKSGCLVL
Chain of KRas G12D mutant (P01116 other isoform, or with tags, fused parts or gaps G12D): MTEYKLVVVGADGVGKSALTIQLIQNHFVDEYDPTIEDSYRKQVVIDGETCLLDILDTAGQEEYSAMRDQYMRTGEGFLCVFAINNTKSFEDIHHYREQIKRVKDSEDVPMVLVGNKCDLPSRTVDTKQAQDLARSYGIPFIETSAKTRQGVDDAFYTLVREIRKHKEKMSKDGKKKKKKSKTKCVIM
Chain of KRas wild type (P01116 other isoform, or with tags, fused parts or gaps): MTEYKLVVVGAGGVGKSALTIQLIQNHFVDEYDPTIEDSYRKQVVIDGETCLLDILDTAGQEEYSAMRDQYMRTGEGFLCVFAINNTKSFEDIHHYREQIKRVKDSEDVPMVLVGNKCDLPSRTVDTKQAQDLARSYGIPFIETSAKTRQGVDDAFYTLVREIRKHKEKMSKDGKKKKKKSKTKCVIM
Chain of KRas G12C mutant (P01116 other isoform, or with tags, fused parts or gaps G12C): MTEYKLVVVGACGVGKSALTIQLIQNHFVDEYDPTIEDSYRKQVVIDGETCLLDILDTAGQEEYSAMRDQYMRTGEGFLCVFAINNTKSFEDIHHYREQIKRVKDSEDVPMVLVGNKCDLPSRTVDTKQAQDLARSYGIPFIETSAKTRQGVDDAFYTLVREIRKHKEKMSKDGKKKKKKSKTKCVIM

Row | Structure (SMILES) | inhibition at 20 µM [1, 6] [%] | inhibition at 20 µM [1, 7] [%] | inhibition at 20 µM [3, 8] [%] | inhibition at 20 µM [3, 9] [%] | inhibition at 20 µM [4, 10] [%] | inhibition at 20 µM [4, 11] [%] | inhibition at 20 µM [5, 12] [%] | KRas G12D mutant + SOS: % inh. ([5]; + SOS) | inhibition at 20 µM [5, 13] [%] | KRas G12D mutant: % inh. ([5]; without SOS) | Activation of JNK in PANC-1 [2]
1 | CO[C@H]1CC[C@@H](Nc2nc(-c3nccn3C)nc3sc(-c4ccn(C)n4)c(-c4ccccc4)c23)C1 (racemic) [Compound 5, rac-N-((1R,3S)-3-Methoxycyclopentyl)-2-(1-methyl-1H-imidazol-2-yl)-6-(1-methyl-1H-pyrazol-3-yl)-5-phenylthieno[2,3-d]pyrimidin-4-amine] | 76 to 100 | 26 to 45 | 76 to 100 | 46 to 75 | 76 to 100 | 26 to 45 | 46 to 75 | C (C = 46-75% inhibition) | 1 to 25 | A (A = 1-25% inhibition) | Y
2 | COc1cccc(-c2sc3nc(-c4nccn4C)nc(NC4CCC(OC)C4)c3c2C)c1F (racemic) [Compound 10, rac-6-(2-Fluoro-3-methoxyphenyl)-N-((1R,3S)-3-methoxycyclopentyl)-5-methyl-2-(1-methyl-1H-imidazol-2-yl)thieno[2,3-d]pyrimidin-4-amine and rac-6-(2-Fluoro-3-methoxyphenyl)-N-((1R,3R)-3-methoxycyclopentyl)-5-methyl-2-(1-methyl-1H-imidazol-2-yl)thieno[2,3-d]pyrimidin-4-amine] | 46 to 75 | 76 to 100 | 76 to 100 | 76 to 100 | 46 to 75 | 46 to 75 | 46 to 75 | C (C = 46-75% inhibition) | 76 to 100 | D (D = 76-100% inhibition) | Y
3 | CO[C@H]1CC[C@@H](Nc2nc(-c3nccn3C)nc3sc(-c4ccn(C(C)C)n4)c(C)c23)C1 (racemic) [Compound 12, rac-6-(1-Isopropyl-1H-pyrazol-3-yl)-N-((1R,3S)-3-methoxycyclopentyl)-5-methyl-2-(1-methyl-1H-imidazol-2-yl)thieno[2,3-d]pyrimidin-4-amine] | 76 to 100 | 46 to 75 | 76 to 100 | 76 to 100 | 76 to 100 | 76 to 100 | 46 to 75 | C (C = 46-75% inhibition) | 46 to 75 | C (C = 46-75% inhibition) | Y
4 | COC1CCCN(c2nc(-c3nccn3C)nc3sc(-c4ccn(C(C)C)n4)c(C)c23)C1 (racemic) [Compound 14, rac-6-(1-Isopropyl-1H-pyrazol-3-yl)-4-(3-methoxypiperidin-1-yl)-5-methyl-2-(1-methyl-1H-imidazol-2-yl)thieno[2,3-d]pyrimidine] | 76 to 100 | 26 to 45 | – | 26 to 45 | 76 to 100 | 0 | – | – | – | – | Y

The next lines start with results.

Row | inhibition at 20 µM [1, 6] [%] | inhibition at 20 µM [1, 7] [%] | inhibition at 20 µM [3, 8] [%] | inhibition at 20 µM [3, 9] [%] | inhibition at 20 µM [4, 10] [%] | inhibition at 20 µM [4, 11] [%] | inhibition at 20 µM [5, 12] [%] | KRas G12D mutant + SOS: % inh. ([5]; + SOS) | inhibition at 20 µM [5, 13] [%] | KRas G12D mutant: % inh. ([5]; without SOS) | Structure (SMILES) | Activation of JNK in PANC-1 [2]
5 | 76 to 100 | 46 to 75 | – | 76 to 100 | 76 to 100 | 76 to 100 | 76 to 100 | D (D = 76-100% inhibition) | 76 to 100 | D (D = 76-100% inhibition) | COCC1CN(c2nc(-c3nccn3C)nc3sc(-c4ccn(C(C)C)n4)c(C)c23)CCO1 (racemic) [Compound 15, 4-(6-(1-Isopropyl-1H-pyrazol-3-yl)-5-methyl-2-(1-methyl-1H-imidazol-2-yl)thieno[2,3-d]pyrimidin-4-yl)-2-(methoxymethyl)morpholine] | Y
6 | 76 to 100 | 76 to 100 | – | 46 to 75 | 76 to 100 | 76 to 100 | 76 to 100 | D (D = 76-100% inhibition) | 76 to 100 | D (D = 76-100% inhibition) | COCCO[C@H]1CC[C@@H](Nc2nc(-c3nccn3C)nc3sc(-c4ccn(C(C)C)n4)c(C)c23)C1 (racemic) [Compound 20, rac-6-(1-Isopropyl-1H-pyrazol-3-yl)-N-((1R,3S)-3-(2-methoxyethoxy)cyclopentyl)-5-methyl-2-(1-methyl-1H-imidazol-2-yl)thieno[2,3-d]pyrimidin-4-amine] | Y
7 | 76 to 100 | 46 to 75 | – | 46 to 75 | 76 to 100 | 26 to 45 | 76 to 100 | D (D = 76-100% inhibition) | 46 to 75 | C (C = 46-75% inhibition) | Cc1c(-c2ccn(C(C)C)n2)sc2nc(-c3nccn3C)nc(NCC3COCCN3C)c12 (racemic) [Compound 24, rac-6-(1-Isopropyl-1H-pyrazol-3-yl)-5-methyl-2-(1-methyl-1H-imidazol-2-yl)-N-((4-methylmorpholin-3-yl)methyl)thieno[2,3-d]pyrimidin-4-amine] | Y
8 | 76 to 100 | 76 to 100 | – | 76 to 100 | 76 to 100 | 76 to 100 | 76 to 100 | D (D = 76-100% inhibition) | 76 to 100 | D (D = 76-100% inhibition) | Cc1c(-c2ccn(C(C)C)n2)sc2nc(-c3nccn3C)nc(NCC3CN(C)CCO3)c12 (racemic) [Compound 25, rac-6-(1-Isopropyl-1H-pyrazol-3-yl)-5-methyl-2-(1-methyl-1H-imidazol-2-yl)-N-((4-methylmorpholin-2-yl)methyl)thieno[2,3-d]pyrimidin-4-amine] | Y
9 | 76 to 100 | 76 to 100 | – | 76 to 100 | 76 to 100 | 76 to 100 | 46 to 75 | C (C = 46-75% inhibition) | 76 to 100 | D (D = 76-100% inhibition) | Cc1c(-c2ccn(C(C)C)n2)sc2nc(-c3nccn3C)nc(NCC3CCCO3)c12 (racemic) [Compound 26, rac-6-(1-Isopropyl-1H-pyrazol-3-yl)-5-methyl-2-(1-methyl-1H-imidazol-2-yl)-N-((tetrahydrofuran-2-yl)methyl)thieno[2,3-d]pyrimidin-4-amine] | Y
